Results taken from ChEMBL document CHEMBL3991601, “The target landscape of clinical kinase drugs” (Science, 2017).
Active and inactive are the calls of the source.

What was measured:
[1] = biological target: T1, Glycogen phosphorylase, liver form (Homo sapiens, UniProt P06737); assay type: subcellular, K-562, COLO 205, SK-N-BE(2) and MV-4-11, Cell lysate; settings: read-out: Kd apparent
T1 sequence (P06737 whole entry): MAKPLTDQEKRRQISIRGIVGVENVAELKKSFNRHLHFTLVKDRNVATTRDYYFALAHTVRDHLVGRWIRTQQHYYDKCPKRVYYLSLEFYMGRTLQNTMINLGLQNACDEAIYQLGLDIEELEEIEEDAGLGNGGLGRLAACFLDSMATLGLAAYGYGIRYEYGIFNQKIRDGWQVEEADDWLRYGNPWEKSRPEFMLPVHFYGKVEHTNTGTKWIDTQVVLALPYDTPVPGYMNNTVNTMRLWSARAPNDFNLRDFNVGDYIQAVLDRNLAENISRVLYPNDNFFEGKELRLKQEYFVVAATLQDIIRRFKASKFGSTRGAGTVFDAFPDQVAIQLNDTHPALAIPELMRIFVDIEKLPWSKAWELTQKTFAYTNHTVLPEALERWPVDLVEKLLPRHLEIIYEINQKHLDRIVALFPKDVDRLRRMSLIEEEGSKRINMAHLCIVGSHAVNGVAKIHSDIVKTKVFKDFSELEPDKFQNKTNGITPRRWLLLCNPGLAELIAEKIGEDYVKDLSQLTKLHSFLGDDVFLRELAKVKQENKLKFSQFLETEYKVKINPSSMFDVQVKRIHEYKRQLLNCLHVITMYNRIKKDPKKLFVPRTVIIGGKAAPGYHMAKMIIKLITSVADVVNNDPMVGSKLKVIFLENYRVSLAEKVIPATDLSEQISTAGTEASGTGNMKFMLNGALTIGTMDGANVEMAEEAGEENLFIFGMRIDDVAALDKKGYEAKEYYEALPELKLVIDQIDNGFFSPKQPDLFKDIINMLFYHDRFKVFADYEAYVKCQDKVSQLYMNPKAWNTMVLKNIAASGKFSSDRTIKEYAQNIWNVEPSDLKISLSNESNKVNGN

[2] = biological target: Cyclin-dependent kinase 5 (Homo sapiens, UniProt Q00535)
Cyclin-dependent kinase 5, sequence (Q00535 whole entry): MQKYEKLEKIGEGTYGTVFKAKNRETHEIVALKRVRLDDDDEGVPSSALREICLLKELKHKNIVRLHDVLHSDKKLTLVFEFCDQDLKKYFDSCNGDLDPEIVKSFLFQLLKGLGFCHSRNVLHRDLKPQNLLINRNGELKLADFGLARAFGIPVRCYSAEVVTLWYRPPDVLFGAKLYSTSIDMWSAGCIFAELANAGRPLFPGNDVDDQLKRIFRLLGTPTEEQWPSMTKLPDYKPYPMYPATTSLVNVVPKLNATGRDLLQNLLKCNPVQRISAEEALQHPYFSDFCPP

[3] = biological target: DnaJ homolog subfamily A member 1 (Homo sapiens, UniProt P31689)
DnaJ homolog subfamily A member 1, sequence (P31689 whole entry): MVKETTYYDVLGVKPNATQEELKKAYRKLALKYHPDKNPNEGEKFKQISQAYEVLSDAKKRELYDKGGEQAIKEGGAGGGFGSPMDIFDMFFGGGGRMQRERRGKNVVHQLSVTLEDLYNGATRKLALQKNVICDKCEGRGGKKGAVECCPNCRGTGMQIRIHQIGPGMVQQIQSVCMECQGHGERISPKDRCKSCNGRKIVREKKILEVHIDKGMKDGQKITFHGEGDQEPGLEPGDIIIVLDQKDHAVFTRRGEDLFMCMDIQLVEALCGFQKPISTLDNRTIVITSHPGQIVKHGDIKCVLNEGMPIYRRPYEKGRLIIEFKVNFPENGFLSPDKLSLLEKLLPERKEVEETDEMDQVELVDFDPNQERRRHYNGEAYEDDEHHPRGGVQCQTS

[4] = biological target: T2, Cyclin-G-associated kinase (Homo sapiens, UniProt O14976)
T2 sequence (O14976 whole entry): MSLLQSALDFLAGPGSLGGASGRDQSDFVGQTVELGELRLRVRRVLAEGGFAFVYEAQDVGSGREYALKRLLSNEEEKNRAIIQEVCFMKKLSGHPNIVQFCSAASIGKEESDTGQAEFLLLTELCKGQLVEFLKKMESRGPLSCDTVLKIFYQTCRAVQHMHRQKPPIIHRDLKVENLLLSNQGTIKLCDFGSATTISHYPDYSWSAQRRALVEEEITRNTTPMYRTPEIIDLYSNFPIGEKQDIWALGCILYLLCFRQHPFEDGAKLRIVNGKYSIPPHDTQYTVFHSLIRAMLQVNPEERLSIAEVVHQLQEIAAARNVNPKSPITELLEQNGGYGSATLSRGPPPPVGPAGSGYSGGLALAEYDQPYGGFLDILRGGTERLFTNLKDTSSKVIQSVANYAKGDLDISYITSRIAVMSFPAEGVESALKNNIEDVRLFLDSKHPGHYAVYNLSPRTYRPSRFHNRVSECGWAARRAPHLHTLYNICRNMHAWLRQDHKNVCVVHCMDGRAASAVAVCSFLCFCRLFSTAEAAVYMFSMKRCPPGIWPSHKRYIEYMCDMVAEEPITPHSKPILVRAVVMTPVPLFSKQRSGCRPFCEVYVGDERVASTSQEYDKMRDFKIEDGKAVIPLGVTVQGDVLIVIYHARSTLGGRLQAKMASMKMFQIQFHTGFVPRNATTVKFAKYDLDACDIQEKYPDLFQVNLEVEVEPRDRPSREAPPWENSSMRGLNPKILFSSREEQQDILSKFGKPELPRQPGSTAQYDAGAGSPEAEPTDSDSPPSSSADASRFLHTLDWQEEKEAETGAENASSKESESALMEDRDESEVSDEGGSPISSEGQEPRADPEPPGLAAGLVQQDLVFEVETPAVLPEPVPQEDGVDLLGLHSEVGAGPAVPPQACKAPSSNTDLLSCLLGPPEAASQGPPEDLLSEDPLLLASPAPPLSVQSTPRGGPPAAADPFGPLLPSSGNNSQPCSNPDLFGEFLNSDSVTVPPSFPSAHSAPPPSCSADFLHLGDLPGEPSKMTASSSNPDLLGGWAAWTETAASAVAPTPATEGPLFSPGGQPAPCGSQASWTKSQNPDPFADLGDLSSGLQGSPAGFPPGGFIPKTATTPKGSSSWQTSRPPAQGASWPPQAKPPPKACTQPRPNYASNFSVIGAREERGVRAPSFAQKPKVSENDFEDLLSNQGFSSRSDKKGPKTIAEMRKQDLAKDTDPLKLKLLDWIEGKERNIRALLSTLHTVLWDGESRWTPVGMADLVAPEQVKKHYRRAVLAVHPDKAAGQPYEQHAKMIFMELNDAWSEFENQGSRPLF

[5] = biological target: T3, STE20-related kinase adapter protein alpha (Homo sapiens, UniProt Q7RTN6)
T3 sequence (Q7RTN6 whole entry): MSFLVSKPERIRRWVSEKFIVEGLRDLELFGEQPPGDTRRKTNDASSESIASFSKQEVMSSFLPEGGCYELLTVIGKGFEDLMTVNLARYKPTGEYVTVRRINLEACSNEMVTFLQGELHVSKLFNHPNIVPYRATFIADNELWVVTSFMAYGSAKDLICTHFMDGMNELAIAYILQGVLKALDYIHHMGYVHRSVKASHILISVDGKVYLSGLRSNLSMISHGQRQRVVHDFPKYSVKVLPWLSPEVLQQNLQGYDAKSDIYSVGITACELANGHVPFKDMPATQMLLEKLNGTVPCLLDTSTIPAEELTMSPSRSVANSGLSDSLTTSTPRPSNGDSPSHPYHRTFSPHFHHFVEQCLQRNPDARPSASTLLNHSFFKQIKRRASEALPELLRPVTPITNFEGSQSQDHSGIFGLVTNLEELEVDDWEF
Also: in the data inactive means no Kd found up to 30 µM.

| Compound | Kd [1] | Kd [2] | Kd [3] | Kd [4] | Kd [5] |
| --- | --- | --- | --- | --- | --- |
| Cn1cc(-c2[nH]c3cc(NC(=O)[C@H](N)C4CCCCC4)cc4c3c2C=NNC4=O)cn1 | > 30 µM (inactive) | > 30 µM (inactive) | > 30 µM (inactive) | 0.023 µM (active) | > 30 µM (inactive) |
| NC(=O)c1ccc(N(C(N)=O)c2c(F)cccc2F)nc1-c1ccc(F)cc1F [VX-702] | > 30 µM (inactive) | > 30 µM (inactive) | > 30 µM (inactive) | > 30 µM (inactive) | > 30 µM (inactive) |
| COc1cc2ncnc(Nc3ccc(F)c(Cl)c3)c2cc1NC(=O)/C=C/CN1CCCCC1 [DACOMITINIB ANHYDROUS] | > 30 µM (inactive) | > 30 µM (inactive) | > 30 µM (inactive) | 0.168 µM (active) | > 30 µM (inactive) |
| S=C(NCc1ccc2c(c1)OCO2)N1CCN(c2ncnc3c2oc2ccccc23)CC1 [AMUVATINIB] | > 30 µM (inactive) | > 30 µM (inactive) | > 30 µM (inactive) | > 30 µM (inactive) | > 30 µM (inactive) |
| COc1cc(F)c(F)c(Nc2ccc(I)cc2F)c1NS(=O)(=O)C1(C[C@H](O)CO)CC1 [REFAMETINIB] | > 30 µM (inactive) | > 30 µM (inactive) | > 30 µM (inactive) | > 30 µM (inactive) | > 30 µM (inactive) |
| O[C@H]1CC[C@H](Nc2ncc3nc(Nc4c(F)cc(F)cc4F)n([C@H]4CCOC4)c3n2)CC1 [TANZISERTIB] | > 30 µM (inactive) | > 30 µM (inactive) | > 30 µM (inactive) | 0.156 µM (active) | > 30 µM (inactive) |
| CCc1nc(C(N)=O)c(Nc2ccc(N3CCC(N4CCN(C)CC4)CC3)c(OC)c2)nc1NC1CCOCC1 [GILTERITINIB] | > 30 µM (inactive) | > 30 µM (inactive) | > 30 µM (inactive) | 0.009 µM (active) | > 30 µM (inactive) |
| C#Cc1cccc(Nc2ncnc3cc4c(cc23)OCCOCCOCCO4)c1 [ICOTINIB] | > 30 µM (inactive) | > 30 µM (inactive) | > 30 µM (inactive) | 0.725 µM (active) | > 30 µM (inactive) |
| COc1cc2ncnc(Nc3ccc(O)cc3)c2cc1OC [WHI-P131] | > 30 µM (inactive) | > 30 µM (inactive) | > 30 µM (inactive) | 28.7 µM (active) | > 30 µM (inactive) |
| C=CC(=O)Nc1cc(Nc2nccc(-c3cn(C)c4ccccc34)n2)c(OC)cc1N(C)CCN(C)C [OSIMERTINIB] | > 30 µM (inactive) | > 30 µM (inactive) | > 30 µM (inactive) | > 30 µM (inactive) | > 30 µM (inactive) |
| FC(F)(F)c1ccc(CNc2ccc(Cc3c[nH]c4ncc(Cl)cc34)cn2)cn1 [PEXIDARTINIB] | > 30 µM (inactive) | > 30 µM (inactive) | > 30 µM (inactive) | > 30 µM (inactive) | > 30 µM (inactive) |
| COc1ccc2c(OCc3nnc4ccc(-c5ccccc5)nn34)ccnc2c1 [AMG-208] | > 30 µM (inactive) | > 30 µM (inactive) | > 30 µM (inactive) | > 30 µM (inactive) | > 30 µM (inactive) |
| COc1cccc2cc(-c3nc([C@H]4CC[C@H](C(=O)O)CC4)n4ncnc(N)c34)[nH]c12 [OSI-027] | > 30 µM (inactive) | > 30 µM (inactive) | > 30 µM (inactive) | > 30 µM (inactive) | > 30 µM (inactive) |
| O=C(NC[C@H](O)CO)c1ccncc1Nc1ccc(I)cc1F [PIMASERTIB] | > 30 µM (inactive) | > 30 µM (inactive) | > 30 µM (inactive) | > 30 µM (inactive) | > 30 µM (inactive) |
| CN1CCN(c2nc(C3=C(c4c[nH]c5ccccc45)C(=O)NC3=O)c3ccccc3n2)CC1 [SOTRASTAURIN] | > 30 µM (inactive) | > 30 µM (inactive) | > 30 µM (inactive) | > 30 µM (inactive) | > 30 µM (inactive) |
| c1cc(OCCN2CCCCC2)cc(-c2n[nH]c3ccc(-c4nc[nH]n4)cc23)c1 [CC-401] | > 30 µM (inactive) | > 30 µM (inactive) | > 30 µM (inactive) | 1.46 µM (active) | > 30 µM (inactive) |
| O=c1[nH]c([C@@H]2CCCN2)nc2c1oc1ccc(Cl)cc12 | > 30 µM (inactive) | > 30 µM (inactive) | > 30 µM (inactive) | > 30 µM (inactive) | > 30 µM (inactive) |
| COc1ccc(-c2ccc3ncc4c(c3c2)n(-c2ccc(N3CCNCC3)c(C(F)(F)F)c2)c(=O)n4C)cn1 [BGT-226 FREE BASE] | > 30 µM (inactive) | > 30 µM (inactive) | > 30 µM (inactive) | > 30 µM (inactive) | > 30 µM (inactive) |
| O=S(=O)(c1cccc2c(O)nccc12)N1CCCNCC1 [HYDROXYFASUDIL] | > 30 µM (inactive) | > 30 µM (inactive) | > 30 µM (inactive) | > 30 µM (inactive) | > 30 µM (inactive) |
| CC(C)CC(=O)Nc1[nH]nc2c1CN(C(=O)C1CCN(C)CC1)C2(C)C [PHA-793887] | > 30 µM (inactive) | 0.135 µM (active) | > 30 µM (inactive) | > 30 µM (inactive) | > 30 µM (inactive) |
